Reference: US10829506B2, “Amino- or ammonium-containing sulfonic acid, phosphonic acid and carboxylic acid derivatives and their medical use” (GRI Bio, Inc., priority 2011, dated 2020)

System: phospho-Akt Ser473
Assay: Inhibition of Akt phosphorylation on Ser473 in IgE sensitized, antigen stimulated RBL-2H3 cells
Type: cell-based, rat
Settings: normalized to total Akt, IgE and antigen for 15 min
Description: The mast cell degranulation assay using the RBL-2H3 cell line (see Example 27) was also used to determine the status of the PI3K/Akt axis. Activation of PI3K leads to production of PIP3 on the cytosolic side of the lipid bilayer. Akt is recruited to the PIP3 domain and subsequently activated by phosphorylation on residues Ser473 and Thr308. (Franke et al., Cell 81:727-736, (1995)). Once recruited to the membrane, it is phosphorylated and activated by other kinases (Hemmings, Science 275:628-630 (1997); Hemmings. Science 276:534 (1997); Downward, Science 279:673-674 (1998); Alessi et al., EMBO J. 15:6541-6551 (1996)). Western blotting of the phosphorylated Ser473 residue on Akt (phospho-Akt Ser473) is widely used to assess the level of activation of the PI3K/Akt axis.
All buffers and solutions used for the phosphor-Akt Ser473 assay were from Meso Scale Discovery. Tris Lysis Buffer consisted of 150 mM NaCl, 20 mM Tris, pH 7.5, 1 mM EDTA, 1 mM EGTA and 1% Triton-X-100. Complete Tris Lysis Buffer was prepared prior to use by addition of protease inhibitor, phosphatase inhibitors and PMSF. The 10x Tris Wash Buffer consisted of 500 mM Tris, pH 7.5, 1.5 M NaCl and 0.2% Tween-20. Blocker A was made up of bovine serum albumin in Tris Wash Buffer. Read Buffer T was used according to manufacturer's instructions. The Whole Cell Lysate Kits used were phospho-Akt Ser473 (K11100D. Lot K0011749) and total ERK½ (K11107D, Lot K0011698) as a loading control.
Protein assay: protein concentration was determined using the BCA (bicinchoninic acid) Protein Assay kit according to the manufacturer's instructions, Briefly, duplicate 10 μl samples of bovine serum albumin (BSA) standards, blank and lysates were incubated in a 96-well plate with 0.2 ml working reagent for 30 min at 37° C. Plates cooled to room temperature for 5 min and absorbance at 562 nm measured in a multi-mode plate reader. Protein concentrations were calculated using FlexStation 3 software (SoftMax Pro version 5.3). Protein concentration of lysates was determined from a standard curve (BSA) using a linear curve fit.
Phosphoprotein assay: protein phosphorylation was determined using the MULTI-SPOT® Assay System (Meso Scale Discovery), providing simultaneous detection of phosphorylated and total proteins. Briefly, capture antibodies against phosphorylated and total protein are patterned on distinct spots in the same well of 96-well plates. Sandwich immunoassay and electrochemiluminescence detection technology are combined to measure intensity of the emitted light from phosphorylated and total protein spots. For analysis of phosphor-Akt Ser473 was performed according to the manufacturer's instructions. The optimal amount of protein was determined at 5 μg lysate per well for ERK½ and 10 μg/well for phospho-Akt Ser473. Plates were blocked with 25 μl/well Blocker A for 1 h at room temperature with gentle agitation. During this time, the lysates were thawed and diluted to the desired protein concentration in complete Tris Lysis Buffer. Plates were washed four times in Tris Wash Buffer and 25 μl lysate per well added. Plates were incubated for 1-3 h at room temperature with agitation according to the manufacturer's recommendations. Plates were washed four times with Tris Wash Buffer, followed by addition of 25 μl/well of the respective detection antibody and incubation for 1 h at room temperature, with agitation. After a final four washes with Tris Wash Buffer 150 μl/well, Read Buffer T was added, and plates read on a SECTOR Imager 6000 plate reader.
The mean background signal from each plate was subtracted from averaged raw data. The amount of total protein phosphorylaled was expressed as % phosphoprotein according to the manufacturer's (Meso Scale Discovery) Instructions.
Levels of phospho-Akt Ser473 were determined in IgE sensitized and antigen stimulated cells after treatment without (positive control) or with 1, 5 and 25 μM test compound and normalized to levels of total Akt.

## CCCCCCCCCCCCCC[N+](C)(C)CCCS(=O)(=O)[O-] [Compound 1a, 3-(N,N-Dimethylmyristylammonio)-Propanesulfonate]
1 μM
  Level of phospho-Akt Ser473: 103.1 ± 17.4 % positive control
5 μM
  Level of phospho-Akt Ser473: 57.0 ± 15.2 % positive control
25 μM
  Level of phospho-Akt Ser473: 13.2 ± 4.2 % positive control
